Read-outs that look alike come from different tables or passages of the source.
Experiments:
[1] = tested on: Klebsiella pneumoniae Exp. 52 145; assay: MIC, liquid medium dilution; assay type: cell-based
Protocol: (§1) The method used was a dilution of a liquid medium where a series of tubes received the same quantity of a sterile nutritive media and increasing doses of the test compounds were placed therein. Then each tube was seeded with a bacterial strain and was incubated for 24 or 48 hours at 37° C. in an oven. The increasing inhibition was determined by transillumination to determine the minimum inhibiting concentration (MIC in μg/ml) and the results are reported in the following Tables.

[2] = tested on: Klebsiella pneumoniae 2 536 Resistant Gentamicine; assay: MIC, liquid medium dilution; assay type: cell-based
Protocol: as §1

[3] = tested on: Staphylococcus aureus ATCC 6 538 Pen-Sensitive; assay: MIC, liquid medium dilution; assay type: cell-based
Protocol: as §1

[4] = tested on: Staphylococcus aureus exp. n° 54 146; assay: MIC, liquid medium dilution; assay type: cell-based
Protocol: as §1

[5] = tested on: Proteus mirabilis (indol-) A 235; assay: MIC, liquid medium dilution; assay type: cell-based
Protocol: as §1

[6] = tested on: Escherichia Coli Resistant Tetracycline ATCC 11 303; assay: MIC, liquid medium dilution; assay type: cell-based
Protocol: as §1

[7] = tested on: Staphylococcus aureus UC 1 128 Pen-Resistant; assay: MIC, liquid medium dilution; assay type: cell-based
Protocol: as §1

[8] = tested on: Enterobacter cloacae 681; assay: MIC, liquid medium dilution; assay type: cell-based; conditions: read-out: MIC
Protocol: as §1

[9] = tested on: Streptococcus faecalis 5 432; assay: MIC, liquid medium dilution; assay type: cell-based
Protocol: as §1

[10] = tested on: Escherichia Coli Sensitive Tetracycline ATCC 9 637; assay: MIC, liquid medium dilution; assay type: cell-based
Protocol: as §1

[11] = tested on: Bacillus subtilis ATCC 6 633; assay: MIC, liquid medium dilution; assay type: cell-based
Protocol: as §1

[12] = tested on: Streptococcus pyogenes A 561; assay: MIC, liquid medium dilution; assay type: cell-based
Protocol: as §1

[13] = tested on: Streptococcus faecalis 99 F 74; assay: MIC, liquid medium dilution; assay type: cell-based; conditions: Enterococcus faecalis
Protocol: as §1

[14] = tested on: Salmonella typhimurium 420; assay: MIC, liquid medium dilution; assay type: cell-based; conditions: Salmonella enterica
Protocol: as §1

[15] = tested on: Escherichia Coli Resistant Gentamicine, Tobramycine R 55 123 D; assay: MIC, liquid medium dilution; assay type: cell-based
Protocol: as §1

[16] = tested on: Escherichia Coli Exp. TO26 B6; assay: MIC, liquid medium dilution; assay type: cell-based
Protocol: as §1

[17] = tested on: Serratia Resistant Gentamicine 2 532; assay: MIC, liquid medium dilution; assay type: cell-based
Protocol: as §1

[18] = tested on: Providencia Du 48; assay: MIC, liquid medium dilution; assay type: cell-based
Protocol: as §1

[19] = tested on: Escherichia coli (T) O26 B6; assay: Experimental infection with Escherichia coli (T) O26 B6 in mice; assay type: in vivo
Protocol: The products of Example 6 and 10 were studied for their activity against an experimental infection of Escherichia coli in groups of 10 male mice weighing about 22 g. The mice received an intraperitoneal injection of 0.5 ml of a 24 hour old culture in a nutritive media of Escherichia coli (T) O26 B6 of the Pasteur Institute diluted 1/5.5 with distilled water. The test product was administered subcutaneously or orally 1 hour and 5 and 24 hours after the infection and the number of dead was determined during 8 days.

[20] = tested on: Proteus vulgaris (indol+) A 232; assay: MIC, liquid medium dilution; assay type: cell-based
Protocol: as §1

[21] = Enterococcus faecalis, 5432, 24 h

CO/N=C(\C(=O)NC1C(=O)N2C(C(=O)O)=C(CSc3nnc(C)s3)CS[C@H]12)c1csc(N)n1 (stereo partly shown) [Example 2, 7-[{2-(2-amino-4-thiazolyl)-2-methoxyiminoacetyl}amino]-3-[(2-methyl-1,3,4-thiadiazol-5-yl)-thiomethyl]-ceph-3-eme-4-carboxylic acid]
0.2 µg/mL: MIC ([5]; 24 h) | MIC ([5]; 48 h) | MIC ([6]; ATCC11, 48 h)
5 µg/mL: MIC ([13]; 99F74, 48 h, read-out: MIC) | MIC ([18]; DU48, 48 h, read-out: MIC)
40 µg/mL: MIC ([8]; Enterobacter cloacae, 681, 24 h) | MIC ([8]; Enterobacter cloacae, 681, 48 h)
≤ 0.02 µg/mL: MIC ([12]; A561, 24 h, read-out: MIC) | MIC ([12]; A561, 48 h, read-out: MIC)
1 µg/mL: MIC ([2]; 48 h) | MIC ([3]; ATCC6, 24 h) | MIC ([3]; ATCC6, 48 h) | MIC [9, 21] | MIC ([11]; ATCC6, 48 h) | MIC ([17]; 24 h) | MIC ([17]; 48 h)
0.6 µg/mL: MIC ([2]; 24 h, read-out: MIC) | MIC ([10]; ATCC9, 24 h, read-out: MIC) | MIC ([10]; ATCC9, 48 h) | MIC ([11]; ATCC6, 24 h, read-out: MIC) | MIC ([14]; 24 h, read-out: MIC) | MIC ([14]; 48 h)
0.1 µg/mL: MIC ([1]; EXP.52145, 48 h, read-out: MIC) | MIC ([6]; ATCC11, 24 h, read-out: MIC)
0.05 µg/mL: MIC ([1]; EXP.52145, 24 h)
2 µg/mL: MIC ([4]; 24 h, read-out: MIC) | MIC ([4]; 48 h, read-out: MIC) | MIC ([7]; UC1, 24 h, read-out: MIC) | MIC ([7]; UC1, 48 h, read-out: MIC) | MIC ([9]; Enterococcus faecalis, 5432, 48 h, read-out: MIC) | MIC ([13]; 99F74, 24 h, read-out: MIC) | MIC ([18]; DU48, 24 h, read-out: MIC)
0.4 µg/mL: MIC ([15]; 24 h) | MIC ([15]; 48 h) | MIC ([16]; 24 h) | MIC ([16]; 48 h)

CO/N=C(\C(=O)NC1C(=O)N2C(C(=O)O)=C(C)CSC12)c1csc(N)n1 (stereo not shown) [Example 10, 7-[{2-(2-amino-4-thiazolyl)-2-methoxyimino}acetylamino]-3-methyl-ceph-3-eme-4-carboxylic acid]
6: Mortality after 21 H 30 (number of dead of 10) ([19]; per os, 3 × 0,25 mg)
0.4 µg/mL: MIC ([16]; 24 h)
2 µg/mL: MIC ([2]; 48 h) | MIC ([18]; DU48, 24 h)
7/10: Mice surviving on the 8th day ([19]; per os, 3 × mg) | Mice surviving on the 8th day ([19]; s. c., 3 × 0,25 mg)
8/10: Mice surviving on the 8th day ([19]; s. c., 3 × 0,5 mg)
2/10: Mice surviving on the 8th day ([19]; per os, 3 × 0,5 mg) | Mice surviving on the 8th day ([19]; per os, 3 × 0,25 mg)
0.1 µg/mL: MIC ([1]; EXP.52145, 24 h, read-out: MIC) | MIC ([1]; EXP.52145, 48 h, read-out: MIC) | MIC ([5]; 24 h, read-out: MIC)
3 µg/mL: MIC ([20]; 24 h)
2: Mortality after 6 J (number of dead of 10) ([19]; per os, 3 × 0,5 mg) | Mortality after 21 H 30 (number of dead of 10) ([19]; per os, 3 × 0,5 mg) | Mortality after 70 H (number of dead of 10) ([19]; per os, 3 × 0,5 mg) | Mortality after 47 H (number of dead of 10) ([19]; per os, 3 × mg) | Mortality after 47 H (number of dead of 10) ([19]; s. c., 3 × 0,5 mg)
5 µg/mL: MIC ([17]; 24 h) | MIC ([18]; DU48, 48 h)
0.6 µg/mL: MIC ([2]; 24 h, read-out: MIC) | MIC ([10]; ATCC9, 24 h, read-out: MIC) | MIC ([10]; ATCC9, 48 h) | MIC ([14]; 24 h, read-out: MIC) | MIC ([14]; 48 h) | MIC ([15]; 24 h, read-out: MIC) | MIC ([15]; 48 h) | MIC ([16]; 48 h)
0.05 µg/mL: MIC ([12]; A561, 24 h) | MIC ([12]; A561, 48 h, read-out: MIC)
6/10: Mice surviving on the 8th day ([19]; s. c., 3 × 0,1 mg)
20 µg/mL: MIC ([3]; ATCC6, 24 h) | MIC [9, 21] | MIC ([20]; 48 h) | MIC ([11]; ATCC6, 24 h) | MIC ([13]; 99F74, 24 h)
10 µg/mL: MIC ([17]; 48 h, read-out: MIC)
1: Mortality after 5 J (number of dead of 10) ([19]; per os, 3 × 0,5 mg) | Mortality after 47 H (number of dead of 10) ([19]; per os, 3 × 0,5 mg) | Mortality after 24 H 30 (number of dead of 10) ([19]; per os, 3 × 0,25 mg) | Mortality after 24 H (number of dead of 10) ([19]; per os, 3 × 0,25 mg) | Mortality after 21 H 30 (number of dead of 10) ([19]; per os, 3 × mg) | Mortality after 47 H (number of dead of 10) ([19]; s. c., 3 × 0,1 mg) | Mortality after 5 H 30 (number of dead of 10) ([19]; s. c., 3 × 0,25 mg) | Mortality after 28 H (number of dead of 10) ([19]; s. c., 3 × 0,25 mg) | Mortality after 54 H (number of dead of 10) ([19]; s. c., 3 × 0,25 mg)
0.2 µg/mL: MIC ([5]; 48 h) | MIC ([6]; ATCC11, 24 h) | MIC ([6]; ATCC11, 48 h)
> 40 µg/mL: MIC ([9]; Enterococcus faecalis, 5432, 48 h) | MIC ([11]; ATCC6, 48 h) | MIC ([13]; 99F74, 48 h)
3: Mortality after 21 H 30 (number of dead of 10) ([19]; s. c., 3 × 0,1 mg)
40 µg/mL: MIC ([3]; ATCC6, 48 h) | MIC ([4]; 24 h) | MIC ([4]; 48 h) | MIC ([7]; UC1, 24 h) | MIC ([7]; UC1, 48 h)

— patent US4476122A, “Alkyloximes of 7-amino-thiazolyl-acetamido-cephalosporanic acids” (Roussel Uclaf, priority 1976, dated 1984)
